As a reminder, the IC50 is the concentration that gives 50% inhibition.

The values that follow come from patent US10414763B2 (CANCER RESEARCH TECHNOLOGY LIMITED, priority 2014, dated 2019).

Some results are limits rather than exact numbers.

The assay deals with T1, full-length human PKCι (Homo sapiens, UniProt P41743).
T1 construct: Recombinant, full-length human PKCι expressed in Sf21 insect cells is also commercially available; purchased EMD Millipore; host or cells: Sf21 insect cells (baculovirus)
T1 sequence (P41743 1-596): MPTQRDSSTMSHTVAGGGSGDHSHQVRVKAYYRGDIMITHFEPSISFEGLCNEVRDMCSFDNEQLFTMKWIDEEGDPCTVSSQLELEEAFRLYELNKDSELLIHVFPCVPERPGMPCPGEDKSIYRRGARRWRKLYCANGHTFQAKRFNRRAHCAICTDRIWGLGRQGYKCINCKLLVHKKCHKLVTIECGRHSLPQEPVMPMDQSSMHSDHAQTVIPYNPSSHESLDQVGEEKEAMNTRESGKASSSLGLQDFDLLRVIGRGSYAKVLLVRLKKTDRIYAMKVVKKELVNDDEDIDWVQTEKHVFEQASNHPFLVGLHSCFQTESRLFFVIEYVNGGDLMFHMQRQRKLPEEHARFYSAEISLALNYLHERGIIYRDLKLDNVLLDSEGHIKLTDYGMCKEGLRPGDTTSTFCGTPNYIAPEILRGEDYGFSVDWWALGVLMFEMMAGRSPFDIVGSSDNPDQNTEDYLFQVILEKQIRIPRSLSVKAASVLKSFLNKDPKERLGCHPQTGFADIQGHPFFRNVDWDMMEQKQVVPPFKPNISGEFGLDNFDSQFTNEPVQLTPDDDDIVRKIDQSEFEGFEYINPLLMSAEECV
Nature of the assay: PKCι IC50 IMAP fluorescence polarisation assay, full-length enzyme, 150 μM ATP. It counts as biochemical. The settings on record: read-out: IC50 in IMAP assay against full length PKCi at 150 μM ATP. The procedure, abridged:
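IMAP fluorescence polarisation kinase assay: 15 pM baculovirus-expressed human PKCiota with 100 nM FAM-pseudosubstrate peptide and 150 μM ATP, 1 h at 25 °C. IMAP detection reagent then 2 h at 25 °C before FP measurement. Inhibition referenced to no-compound and no-enzyme controls for IC50 fitting.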
Background: In fluorescence polarisation assays a small probe gives low polarisation when free and higher when bound to something large.
For the compound `CC1(C)CNCCC1Nc1nc(-c2ccnc(Nc3ncc(Cl)cc3F)c2)nc2cncc(C3CCC3)c12` (centres unmarked) [Example 88, {2-[2-(5-Chloro-3-fluoro-pyridin-2-ylamino)-pyridin-4-yl]-5-cyclobutyl-pyrido[3,4-d]pyrimidin-4-yl}-(3,3-dimethyl-piperidin-4-yl)-amine], the IC50 is below 100 nM.

In the case of `CC1(C)CNCCC1Nc1nc(-c2ccnc(Nc3nccc4ccccc34)c2)nc2cncc(C3CCC3)c12` (centres unmarked) [Example 89, {5-Cyclobutyl-2-[2-(isoquinolin-1-ylamino)-pyridin-4-yl]-pyrido[3,4-d]pyrimidin-4-yl}-(3,3-dimethyl-piperidin-4-yl)-amine], the IC50 is below 100 nM.

Turning to `CC1(C)CNCCC1Nc1nc(-c2ccnc(Nc3ccc(OC(F)(F)F)cc3)c2)nc2cncc(C3CCC3)c12` (centres unmarked) [Example 90, {5-Cyclobutyl-2-[2-(4-trifluoromethoxy-phenylamino)-pyridin-4-yl]-pyrido[3,4-d]pyrimidin-4-yl}-(3,3-dimethyl-piperidin-4-yl)-amine], the IC50 lay within 100 to 1000 nM.

As for `CC1(C)CNCCC1Nc1nc(-c2ccnc(Nc3ccccc3)c2)nc2cncc(C3CCC3)c12` (centres unmarked) [Example 91, [5-Cyclobutyl-2-(2-phenylamino-pyridin-4-yl)-pyrido[3,4-d]pyrimidin-4-yl]-(3,3-dimethyl-piperidin-4-yl)-amine], the IC50 is below 100 nM.

For the compound `CC1(C)CNCCC1Nc1nc(-c2ccnc(Nc3cccnc3F)c2)nc2cncc(C3CCC3)c12` (centres unmarked) [Example 92, {5-Cyclobutyl-2-[2-(2-fluoro-pyridin-3-ylamino)-pyridin-4-yl]-pyrido[3,4-d]pyrimidin-4-yl}-(3,3-dimethyl-piperidin-4-yl)-amine], the IC50 was below 100 nM.

`CC1(C)CNCCC1Nc1nc(-c2ccnc(Nc3c(F)cccc3F)c2)nc2cncc(C3CCC3)c12` (centres unmarked) [Example 93, {5-Cyclobutyl-2-[2-(2,6-difluoro-phenylamino)-pyridin-4-yl]-pyrido[3,4-d]pyrimidin-4-yl}-(3,3-dimethyl-piperidin-4-yl)-amine]: the concentration for half-maximal inhibition (IC50) is below 100 nM.

Regarding `Cc1cc2c(-c3nc(N4CCCC5NCCCC54)c4c(C5CC5)cncc4n3)ccnc2[nH]1` (centres unmarked) [Example 94, 5-Cyclopropyl-2-(2-methyl-1H-pyrrolo[2,3-b]pyridin-4-yl)-4-(octahydro-[1,5]naphthyridin-1-yl)-pyrido[3,4-d]pyrimidine], the IC50 was below 100 nM.

In the case of `Cc1cc2c(-c3nc(N4CCCC5NCCCC54)c4c(C5CCC5)cncc4n3)ccnc2[nH]1` (centres unmarked) [Example 95, 5-Cyclobutyl-2-(2-methyl-1H-pyrrolo[2,3-b]pyridin-4-yl)-4-(octahydro-[1,5]naphthyridin-1-yl)-pyrido[3,4-d]pyrimidine], the IC50 was below 100 nM.

As to `CC1(C)CNCCC1Nc1nc(-c2ccnc(NCc3c(F)cccc3F)c2)nc2cncc(C3CCC3)c12` (centres unmarked) [Example 96, {5-Cyclobutyl-2-[2-(2,6-difluoro-benzylamino)-pyridin-4-yl]-pyrido[3,4-d]pyrimidin-4-yl}-(3,3-dimethyl-piperidin-4-yl)-amine], the IC50 was below 100 nM.

`Fc1ccc(F)c(Nc2cc(-c3nc(N4CCC5NCCC54)c4c(C5CCC5)cncc4n3)ccn2)n1` (centres unmarked) [Example 97, {4-[5-Cyclobutyl-4-(hexahydro-pyrrolo [3,2-b]pyrrol-1-yl)-pyrido[3,4-d]pyrimidin-2-yl]-pyridin-2-yl}-(3,6-difluoro-pyridin-2-yl)-amine]: the IC50 is below 100 nM.

In the case of `Fc1cc(F)c(Nc2cc(-c3nc(N4CCC5NCCC54)c4c(C5CCC5)cncc4n3)ccn2)nc1F` (centres unmarked) [Example 98, {4-[5-Cyclobutyl-4-(hexahydro-pyrrolo[3,2-b]pyrrol-1-yl)-pyrido[3,4-d]pyrimidin-2-yl]-pyridin-2-yl}-(3,5,6-trifluoro-pyridin-2-yl)-amine], the IC50 was below 100 nM.

As to `CNC(=O)c1cc2c(-c3nc(N4CCC5CNCCC54)c4c(C5CC5)cncc4n3)ccnc2[nH]1` (centres unmarked) [Example 99, 4-[5-Cyclopropyl-4-(octahydro-pyrrolo[3,2-c]pyridin-1-yl)-pyrido[3,4-d]pyrimidin-2-yl]-1H-pyrrolo[2,3-b]pyridine-2-carboxylic acid methylamide], the IC50 is below 100 nM.

Regarding `Cc1cc2c(-c3nc(NC4CCNCC4(C)C)c4c(C5CC5)cncc4n3)ccnc2[nH]1` (centres unmarked) [Example 100, [5-Cyclopropyl-2-(2-methyl-1H-pyrrolo[2,3-b]pyridin-4-yl)-pyrido[3,4-d]pyrimidin-4-yl]-(3,3-dimethyl-piperidin-4-yl)-amine], the 50% inhibitory concentration (IC50) is below 100 nM.

`Cc1cc2c(-c3nc(NC4CCNCC4(C)C)c4c(C5CCC5)cncc4n3)ccnc2[nH]1` (centres unmarked) [Example 101, [5-Cyclobutyl-2-(2-methyl-1H-pyrrolo[2,3-b]pyridin-4-yl)-pyrido[3,4-d]pyrimidin-4-yl]-(3,3-dimethyl-piperidin-4-yl)-amine]: the IC50 is below 100 nM.

`c1ccc(Nc2cc(-c3nc(N4CCC5NCCC54)c4c(C5CCC5)cncc4n3)ccn2)cc1` (centres unmarked) [Example 102, {4-[5-Cyclobutyl-4-(hexahydro-pyrrolo[3,2-b]pyrrol-1-yl)-pyrido[3,4-d]pyrimidin-2-yl]-pyndin-2-yl}-phenyl-amine]: the IC50 was below 100 nM.

Turning to `Clc1ccc(Cl)c(-c2cc3c(-c4nc(N5CCC6NCCC65)c5c(C6CC6)cncc5n4)ccnc3[nH]2)c1` (centres unmarked) [Example 103, 5-Cyclopropyl-2-[2-(2,5-dichloro-phenyl)-1H-pyrrolo[2,3-b]pyridin-4-yl]-4-(hexahydro-pyrrolo[3,2-b]pyrrol-1-yl)-pyrido[3,4-d]pyrimidine], the IC50 is below 100 nM.

Consider `CC1(C)CNCCC1Nc1nc(-c2ccnc(Nc3cc(F)cc(F)n3)c2)nc2cncc(C3CCC3)c12` (centres unmarked) [Example 105, {5-Cyclobutyl-2-[2-(4,6-difluoro-pyridin-2-ylamino)-pyridin-4-yl]-pyrido[3,4-d]pyrimidin-4-yl}-(3,3-dimethyl-piperidin-4-yl)-amine], for which the IC50 lay within 100 to 1000 nM.

Regarding `CN(c1nc(-c2ccnc(Nc3nc(F)c(F)cc3F)c2)nc2cncc(C3CCC3)c12)C1CCNCC1(C)C` (centres unmarked) [Example 106, {5-Cyclobutyl-2-[2-(3,5,6-trifluoro-pyridin-2-ylamino)-pyridin-4-yl]-pyrido[3,4-d]pyrimidin-4-yl}-(3,3-dimethyl-piperidin-4-yl)-methyl-amine], the IC50 is below 100 nM.

For `CC1(C)CNCCC1Nc1nc(-c2ccnc(Nc3cc(C#N)ccn3)c2)nc2cncc(C3CCC3)c12` (centres unmarked) [Example 107, 2-{4-[5-Cyclobutyl-4-(3,3-dimethyl-piperidin-4-ylamino)-pyrido[3,4-d]pyrimidin-2-yl]-pyridin-2-ylamino}-isonicotinonitrile], the IC50 is below 100 nM.

For the compound `Fc1cc(F)c(Nc2cc(-c3nc(N[C@H]4[C@@H]5CNC[C@@H]54)c4c(C5CCC5)cncc4n3)ccn2)nc1F` [Example 108, (1S,6S)-3-Aza-bicyclo[3.1.0]hex-6-yl-{(R)-5-cyclobutyl-2-[2-(3,5,6-trifluoro-pyridin-2-ylamino)-pyridin-4-yl]-pyrido[3,4-d]pyrimidin-4-yl}-amine], the IC50 was below 100 nM.

As for `Fc1ccc(F)c(Nc2cc(-c3nc(N[C@H]4[C@@H]5CNC[C@@H]54)c4c(C5CCC5)cncc4n3)ccn2)n1` [Example 109, (1S,6S)-3-Aza-bicyclo[3.1.0]hex-6-yl-{(R)-5-cyclobutyl-2-[2-(3,6-difluoro-pyridin-2-ylamino)-pyridin-4-yl]-pyrido[3,4-d]pyrimidin-4-yl}-amine], the 50% inhibitory concentration (IC50) was below 100 nM.

As to `CN(c1nc(-c2ccnc(Nc3ccccc3)c2)nc2cncc(C3CCC3)c12)C1CCNCC1(C)C` (centres unmarked) [Example 110, [5-Cyclobutyl-2-(2-phenylamino-pyridin-4-yl)-pyrido[3,4-d]pyrimidin-4-yl]-(3,3-dimethyl-piperidin-4-yl)-methyl-amine], the half-maximal inhibitory concentration (IC50) was below 100 nM.

Take `c1ccc(Nc2cc(-c3nc(N[C@H]4[C@@H]5CNC[C@@H]54)c4c(C5CCC5)cncc4n3)ccn2)cc1` [Example 111, (1S,6S)-3-Aza-bicyclo[3.1.0]hex-6-yl-[(R)-5-cyclobutyl-2-(2-phenylamino-pyridin-4-yl)-pyrido[3,4-d]pyrimidin-4-yl]-amine]: the IC50 is below 100 nM.

As for `COc1nc(-c2cc3c(-c4nc(N5CCNCC5)c5c(C6CC6)cncc5n4)ccnc3[nH]2)cs1` [Example 112, 5-Cyclopropyl-2-[2-(2-methoxy-thiazol-4-yl)-1H-pyrrolo[2,3-b]pyridin-4-yl]-4-piperazin-1-yl-pyrido[3,4-d] pyrimidine], the IC50 is below 100 nM.

As to `Cc1cc2c(-c3nc(N(C)C4CCNCC4(C)C)c4c(C5CC5)cncc4n3)ccnc2[nH]1` (centres unmarked) [Example 115, [5-Cyclopropyl-2-(2-methyl-1H-pyrrolo[2,3-b]pyridin-4-yl)-pyrido [3,4-d]pyrimidin-4-yl]-(3,3-dimethyl-piperidin-4-yl)-methyl-amine], the IC50 is below 100 nM.

Take `Cc1cc2c(-c3nc(N(C)C4CCNCC4(C)C)c4c(C5CCC5)cncc4n3)ccnc2[nH]1` (centres unmarked) [Example 116, [5-Cyclobutyl-2-(2-methyl-1H-pyrrolo[2,3-b]pyridin-4-yl)-pyrido[3,4-d]pyrimidin-4-yl]-(3,3-dimethyl-piperidin-4-yl)-methyl-amine]: the IC50 is below 100 nM.
